Values joined by “and” are separate entries in the source; they are usually repeats but may differ in a detail not shown here. Equal entries are not always repeated.
Each compound was assayed on HCC1599 (assay: normalised viability (% of control), CellTiter-Blue; higher = more viable cells (100 = DMSO, 0 = benzethonium chloride kill control)). Conditions: 1 nM; incubation time: 72 h.
Summary of the method: (§1)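 384-well plates were pre-loaded with compound in 5 µl medium before 20 µl of breast cancer cell suspension was seeded. Following 72 h incubation, 2.5 µl CellTiter-Blue reagent was added for 2 h at 37 °C. Fluorescence was read at 560/590 nm and plates were normalised to vehicle (100) and a positive kill control (0), checked by Z'-factor. Normalised viability is reported at a single listed concentration of the series.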

Structure (SMILES) | normalised viability
CCCS(=O)(=O)Nc1ccc(F)c(C(=O)c2c[nH]c3ncc(-c4ccc(Cl)cc4)cc23)c1F [Vemurafenib] | 83.4%
O=C(O)C(=O)O.[NH-][C@@H]1CCCC[C@H]1[NH-].[Pt+2] [Oxaliplatin] | 93%
CCN(CC)CCCC(C)Nc1c2ccc(Cl)cc2nc2ccc(OC)cc12 (stereo not given) [Mepacrine] | 96.2%
Cc1ccc(-c2cc(C(F)(F)F)nn2-c2ccc(S(N)(=O)=O)cc2)cc1 [Celecoxib] | 79%

The compounds below were run on CAL-51 in the same assay as above. Conditions: 0.099 nM; incubation time: 72 h.
Summary of the method: as §1

Structure (SMILES) | normalised viability
CCN(CC)CCCC(C)Nc1c2ccc(Cl)cc2nc2ccc(OC)cc12 (stereo not given) [Mepacrine] | 90.8%

Same assay, conditions: 0.1 nM; incubation time: 72 h

Structure (SMILES) | normalised viability
O=C(/C=C/c1cccnc1)NCCCCC1CCN(C(=O)c2ccccc2)CC1 [FK-866] | 101%
CC[C@@H]1C(=O)N(C)c2cnc(Nc3ccc(C(=O)NC4CCN(C)CC4)cc3OC)nc2N1C1CCCC1 [BI 2536] | 89.5%

Same assay, conditions: 1 nM; incubation time: 72 h

Structure (SMILES) | normalised viability
Nc1nc(F)nc2c1ncn2[C@@H]1O[C@H](CO)[C@@H](O)[C@@H]1O [Fludarabine] | 103%
Nc1ncn([C@H]2C[C@H](O)[C@@H](CO)O2)c(=O)n1 [Decitabine] | 113% and 104%
O=C(O)C1(C(=O)O)CCC1.[NH2-].[NH2-].[Pt+2] [Carboplatin] | 99.2%
N#Cc1ccc(C(c2ccc(C#N)cc2)n2cncn2)cc1 [Letrozole] | 108%
C1CN1c1nc(N2CC2)nc(N2CC2)n1 [Triethylenemelamine] | 101%
CCCS(=O)(=O)Nc1ccc(F)c(C(=O)c2c[nH]c3ncc(-c4ccc(Cl)cc4)cc23)c1F [Vemurafenib] | 94.4%
O=C(O)C(=O)O.[NH-][C@@H]1CCCC[C@H]1[NH-].[Pt+2] [Oxaliplatin] | 93.3%
CCN(CC)CCCC(C)Nc1c2ccc(Cl)cc2nc2ccc(OC)cc12 (stereo not given) [Mepacrine] | 97.2%
Cc1ccc(-c2cc(C(F)(F)F)nn2-c2ccc(S(N)(=O)=O)cc2)cc1 [Celecoxib] | 91.3%

Each compound was assayed on HCC1937 in the same assay as above. Conditions: 0.099 nM; incubation time: 72 h.
Summary of the method: as §1

Structure (SMILES) | normalised viability
CCN(CC)CCCC(C)Nc1c2ccc(Cl)cc2nc2ccc(OC)cc12 (stereo not given) [Mepacrine] | 94.7%

Same assay, conditions: 0.1 nM; incubation time: 72 h

Structure (SMILES) | normalised viability
O=C(/C=C/c1cccnc1)NCCCCC1CCN(C(=O)c2ccccc2)CC1 [FK-866] | 107%
CC[C@@H]1C(=O)N(C)c2cnc(Nc3ccc(C(=O)NC4CCN(C)CC4)cc3OC)nc2N1C1CCCC1 [BI 2536] | 86.5%

Same assay, conditions: 1 nM; incubation time: 72 h

Structure (SMILES) | normalised viability
Nc1nc(F)nc2c1ncn2[C@@H]1O[C@H](CO)[C@@H](O)[C@@H]1O [Fludarabine] | 105%
Nc1ncn([C@H]2C[C@H](O)[C@@H](CO)O2)c(=O)n1 [Decitabine] | 95.8% and 102%
O=C(O)C1(C(=O)O)CCC1.[NH2-].[NH2-].[Pt+2] [Carboplatin] | 80.9%
N#Cc1ccc(C(c2ccc(C#N)cc2)n2cncn2)cc1 [Letrozole] | 97.8%
C1CN1c1nc(N2CC2)nc(N2CC2)n1 [Triethylenemelamine] | 86.6%
CCCS(=O)(=O)Nc1ccc(F)c(C(=O)c2c[nH]c3ncc(-c4ccc(Cl)cc4)cc23)c1F [Vemurafenib] | 119%
O=C(O)C(=O)O.[NH-][C@@H]1CCCC[C@H]1[NH-].[Pt+2] [Oxaliplatin] | 84%
CCN(CC)CCCC(C)Nc1c2ccc(Cl)cc2nc2ccc(OC)cc12 (stereo not given) [Mepacrine] | 86%
Cc1ccc(-c2cc(C(F)(F)F)nn2-c2ccc(S(N)(=O)=O)cc2)cc1 [Celecoxib] | 96.7%

The compounds below were run on SK-BR-3 in the same assay as above. Conditions: 0.099 nM; incubation time: 72 h.
Summary of the method: as §1

Structure (SMILES) | normalised viability
CCN(CC)CCCC(C)Nc1c2ccc(Cl)cc2nc2ccc(OC)cc12 (stereo not given) [Mepacrine] | 100%

Same assay, conditions: 0.1 nM; incubation time: 72 h

Structure (SMILES) | normalised viability
O=C(/C=C/c1cccnc1)NCCCCC1CCN(C(=O)c2ccccc2)CC1 [FK-866] | 94.4%
CC[C@@H]1C(=O)N(C)c2cnc(Nc3ccc(C(=O)NC4CCN(C)CC4)cc3OC)nc2N1C1CCCC1 [BI 2536] | 98.5%

Same assay, conditions: 1 nM; incubation time: 72 h

Structure (SMILES) | normalised viability
Nc1nc(F)nc2c1ncn2[C@@H]1O[C@H](CO)[C@@H](O)[C@@H]1O [Fludarabine] | 98.7%
Nc1ncn([C@H]2C[C@H](O)[C@@H](CO)O2)c(=O)n1 [Decitabine] | 82% and 93.2%
O=C(O)C1(C(=O)O)CCC1.[NH2-].[NH2-].[Pt+2] [Carboplatin] | 105%
N#Cc1ccc(C(c2ccc(C#N)cc2)n2cncn2)cc1 [Letrozole] | 86.8%
C1CN1c1nc(N2CC2)nc(N2CC2)n1 [Triethylenemelamine] | 99%
CCCS(=O)(=O)Nc1ccc(F)c(C(=O)c2c[nH]c3ncc(-c4ccc(Cl)cc4)cc23)c1F [Vemurafenib] | 92.2%
O=C(O)C(=O)O.[NH-][C@@H]1CCCC[C@H]1[NH-].[Pt+2] [Oxaliplatin] | 91%
CCN(CC)CCCC(C)Nc1c2ccc(Cl)cc2nc2ccc(OC)cc12 (stereo not given) [Mepacrine] | 101%
Cc1ccc(-c2cc(C(F)(F)F)nn2-c2ccc(S(N)(=O)=O)cc2)cc1 [Celecoxib] | 75.2%

These compounds were tested on HCC1143 in the same assay as above. Conditions: 0.099 nM; incubation time: 72 h.
Summary of the method: as §1

Structure (SMILES) | normalised viability
CCN(CC)CCCC(C)Nc1c2ccc(Cl)cc2nc2ccc(OC)cc12 (stereo not given) [Mepacrine] | 108%

Same assay, conditions: 0.1 nM; incubation time: 72 h

Structure (SMILES) | normalised viability
O=C(/C=C/c1cccnc1)NCCCCC1CCN(C(=O)c2ccccc2)CC1 [FK-866] | 97.5%
CC[C@@H]1C(=O)N(C)c2cnc(Nc3ccc(C(=O)NC4CCN(C)CC4)cc3OC)nc2N1C1CCCC1 [BI 2536] | 109%

Same assay, conditions: 1 nM; incubation time: 72 h

Structure (SMILES) | normalised viability
Nc1nc(F)nc2c1ncn2[C@@H]1O[C@H](CO)[C@@H](O)[C@@H]1O [Fludarabine] | 86.8%
Nc1ncn([C@H]2C[C@H](O)[C@@H](CO)O2)c(=O)n1 [Decitabine] | 88.1% and 95.7%
